Earlier results in US20190015446A1, “MEDICINAL COMPOSITION FOR IMPROVING PROGNOSIS AFTER RESTART OF PATIENT'S OWN HEARTBEAT” (KEIO UNIVERSITY, priority 2015, published 2019).

Tests used:
healthy persons = conditions: hydrogen gas 49%
[1] = test system: rats after cardiopulmonary arrest resuscitation; conditions: inhalation from before to immediately after return of spontaneous circulation

Structure (SMILES): [HH] [hydrogen gas]
- Adverse reaction on inhalation (healthy persons): no adverse reaction
- Brain and heart functions and vital prognosis after cardiopulmonary arrest resuscitation [1]: can improve brain and heart functions and vital prognosis
